Experimental data as given in ChEMBL document CHEMBL3132797, “Synthesis and biological evaluation of substituted N-alkylphenyl-3,5-dinitrobenzamide analogs as anti-TB agents” (Medchemcomm, 2014).
In brackets after ≈: the same amount, converted by molar mass.

Experiments:
Format in all cases: functional
[1] = system: Mycobacterium tuberculosis; assay: Antimycobacterial activity against rifampicin-resistant Mycobacterium tuberculosis clinical isolates by broth dilution method
[2] = system: Mycobacterium tuberculosis; assay: Antimycobacterial activity against multidrug-resistant Mycobacterium tuberculosis clinical isolates by broth dilution method
[3] = system: Mycobacterium tuberculosis; assay: Antimycobacterial activity against isoniazid-resistant Mycobacterium tuberculosis clinical isolates by broth dilution method

SMILES | MIC [1] | MIC [2] | MIC [3]
O=C(Nc1ccccc1F)c1cc([N+](=O)[O-])cc([N+](=O)[O-])c1 | 13 µM (≈ 3.98 µg/mL) | – | –
O=C(Nc1ccc(F)cc1)c1cc([N+](=O)[O-])cc([N+](=O)[O-])c1 | 13 µM (≈ 3.98 µg/mL) | – | –
Cc1c([N+](=O)[O-])cc(C(=O)NCc2ccccc2)cc1[N+](=O)[O-] | 3.17 µM (≈ 0.999 µg/mL) | – | –
CC[C@@H](CO)NCCN[C@@H](CC)CO [ETHAMBUTOL] | – | 16 µM (≈ 3.27 µg/mL) | –
O=C(Nc1cc(Cl)cc(Cl)c1)c1cc([N+](=O)[O-])cc([N+](=O)[O-])c1 | 45.1 µM (≈ 16.1 µg/mL) | – | –
CC(C)c1ccc(NC(=O)c2cc([N+](=O)[O-])cc([N+](=O)[O-])c2)cc1 | 48.6 µM (≈ 16 µg/mL) | – | –
O=C(NCCc1ccccc1)c1cc([N+](=O)[O-])cc([N+](=O)[O-])c1 | < 0.19 µM | > 12.7 µM | 0.795 µM (≈ 0.251 µg/mL)
N#Cc1ccccc1NC(=O)c1cc([N+](=O)[O-])cc([N+](=O)[O-])c1 | 3.2 µM (≈ 0.999 µg/mL) | – | –
Cc1c([N+](=O)[O-])cc(C(=O)N[C@@H](C)c2ccc(F)cc2)cc1[N+](=O)[O-] | < 0.04 µM | 0.72 µM (≈ 0.25 µg/mL) | 0.72 µM (≈ 0.25 µg/mL)
Cc1ccc([C@@H](C)NC(=O)c2cc([N+](=O)[O-])c(C)c([N+](=O)[O-])c2)cc1 | < 0.04 µM | 0.35 µM (≈ 0.12 µg/mL) | 0.35 µM (≈ 0.12 µg/mL)
C[C@@H](NC(=O)c1cc([N+](=O)[O-])cc([N+](=O)[O-])c1)c1ccccc1 | < 0.047 µM | 12.7 µM (≈ 4 µg/mL) | 0.79 µM (≈ 0.249 µg/mL)
Cc1ccc(C(C)NC(=O)c2cc([N+](=O)[O-])c(C)c([N+](=O)[O-])c2)cc1 (racemic) | < 0.17 µM | – | –
O=C(NC1CCCC1)c1cc([N+](=O)[O-])cc([N+](=O)[O-])c1 | 0.9 µM (≈ 0.251 µg/mL) | – | –
NNC(=O)c1ccncc1 [ISONIAZID] | – | 16 µM (≈ 2.19 µg/mL) | 64 µM (≈ 8.78 µg/mL)
Cc1c([N+](=O)[O-])cc(C(=O)N[C@H](C)c2ccc(F)cc2)cc1[N+](=O)[O-] | 11.5 µM (≈ 4 µg/mL) | 5.76 µM (≈ 2 µg/mL) | 11.5 µM (≈ 4 µg/mL)
COc1ccc(CCNC(=O)c2cc([N+](=O)[O-])cc([N+](=O)[O-])c2)cc1 | < 0.17 µM | – | –
CCCCC(CC)CNC(=O)c1cc([N+](=O)[O-])cc([N+](=O)[O-])c1 (stereo not drawn) | < 0.19 µM | – | –
Cc1ccc([C@@H](C)NC(=O)c2cc([N+](=O)[O-])cc([N+](=O)[O-])c2)cc1 | < 0.05 µM | 12.2 µM (≈ 4 µg/mL) | < 0.05 µM
CO[C@H]1/C=C/O[C@@]2(C)Oc3c(C)c(O)c4c(O)c(c(/C=N/N5CCN(C)CC5)c(O)c4c3C2=O)NC(=O)/C(C)=C\C=C\[C@H](C)[C@H](O)[C@@H](C)[C@@H](O)[C@@H](C)[C@H](OC(C)=O)[C@@H]1C [RIFAMPIN] | 256 µM (≈ 211 µg/mL) | 64 µM (≈ 52.7 µg/mL) | –
